In the assay the target is Thymidylate synthase (Homo sapiens, UniProt P04818). As to the kind of experiment: Inhibition of thymidylate synthase.
Thymidylate synthase, sequence (P04818 whole entry): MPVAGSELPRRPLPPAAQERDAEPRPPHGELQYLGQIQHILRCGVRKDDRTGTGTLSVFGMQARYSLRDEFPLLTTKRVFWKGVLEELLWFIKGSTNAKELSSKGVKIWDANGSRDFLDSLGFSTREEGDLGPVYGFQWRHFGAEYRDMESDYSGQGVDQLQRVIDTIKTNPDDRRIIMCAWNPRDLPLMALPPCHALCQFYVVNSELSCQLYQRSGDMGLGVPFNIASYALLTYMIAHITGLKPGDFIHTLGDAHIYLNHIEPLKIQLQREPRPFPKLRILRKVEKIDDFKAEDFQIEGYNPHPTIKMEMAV
The IC50 is the concentration that inhibits the measured activity by half. A low value points to greater potency in that assay. Turning to `CCN(Cc1ccc2nc(C)[nH]c(=O)c2c1)c1ccc(C(=O)N[C@@H](CCC(=O)O)C(=O)O)c([N+](=O)[O-])c1`, half-maximal inhibition (IC50) was put at 145 nM.
Under `CCN(Cc1ccc2nc(C)[nH]c(=O)c2c1)c1ccc(C(=O)N[C@@H](CCC(=O)O)C(=O)O)c(N)c1` stands 309 nM; under `C#CCN(Cc1ccc2nc(C)[nH]c(=O)c2c1)c1ccc(C(=O)N[C@@H](CCC(=O)O)C(=O)O)c(C(F)(F)F)c1`, 479 nM; under `Cc1nc2ccc(CN(CCO)c3ccc(C(=O)N[C@@H](CCC(=O)O)C(=O)O)cc3)cc2c(=O)[nH]1`, 501 nM.
On to `C#CCN(Cc1ccc2nc(C)[nH]c(=O)c2c1)c1ccc(C(=O)N[C@@H](CCC(=O)O)C(=O)O)c(N)c1`, for which inhibition was half-maximal at 288 nM (IC50).
Under `CC(=O)CN(Cc1ccc2nc(C)[nH]c(=O)c2c1)c1ccc(C(=O)N[C@@H](CCC(=O)O)C(=O)O)cc1` stands 25100 nM; under `Cc1nc2ccc(CN(CCN)c3ccc(C(=O)N[C@@H](CCC(=O)O)C(=O)O)c(F)c3)cc2c(=O)[nH]1`, 11700 nM.
Turning to `C#CCN(Cc1ccc2nc(N)[nH]c(=O)c2c1)c1ccc(C(=O)N[C@@H](CCC(=O)O)C(=O)O)c(F)c1`, the concentration for half-maximal inhibition (IC50) was 8.91 nM.
Under `Cc1nc2ccc(CNc3ccc(C(=O)N[C@@H](CCC(=O)O)C(=O)O)cc3F)cc2c(=O)[nH]1` stands 9330 nM.
The value for `Cc1nc2ccc(CN(CCF)c3ccc(C(=O)N[C@@H](CCC(=O)O)C(=O)O)c(F)c3)cc2c(=O)[nH]1` was 42.7 nM.
Under `Cc1nc2ccc(CNc3ccc(C(=O)N[C@@H](CCC(=O)O)C(=O)O)c(F)c3)cc2c(=O)[nH]1` stands 3800 nM.
Compound `Cc1nc2ccc(CN(CCO)c3ccc(C(=O)N[C@@H](CCC(=O)O)C(=O)O)cc3F)cc2c(=O)[nH]1` showed an IC50 of 3550 nM. This IC50 and that of the compound before are within 1.5-fold of each other.
In turn, `CN(Cc1ccc2nc(CF)[nH]c(=O)c2c1)c1ccc(C(=O)N[C@@H](CCC(=O)O)C(=O)O)cc1` showed an IC50 of 2880 nM.
Take `Cc1nc2ccc(CN(CCCO)c3ccc(C(=O)N[C@@H](CCC(=O)O)C(=O)O)cc3F)cc2c(=O)[nH]1`: 977 nM corresponded to half-maximal inhibition (IC50).
Under `COCCCN(Cc1ccc2nc(C)[nH]c(=O)c2c1)c1ccc(C(=O)N[C@@H](CCC(=O)O)C(=O)O)cc1` stands 12900 nM; under `Cc1nc2ccc(CN(CCCO)c3ccc(C(=O)N[C@@H](CCC(=O)O)C(=O)O)cc3)cc2c(=O)[nH]1`, 537 nM.
The value for `Cc1nc2ccc(CN(CCF)c3ccc(C(=O)N[C@@H](CCC(=O)O)C(=O)O)cc3)cc2c(=O)[nH]1` was 240 nM; that for `Cc1nc2ccc(CN(CCCO)c3ccc(C(=O)N[C@@H](CCC(=O)O)C(=O)O)c(F)c3)cc2c(=O)[nH]1` was 589 nM.
The value for `CCN(Cc1ccc2nc(C)[nH]c(=O)c2c1)c1ccc(C(=O)N[C@@H](CCC(=O)O)C(=O)O)c(F)c1` was 44.7 nM.
Consider `CCN(Cc1ccc2nc(C)[nH]c(=O)c2c1)c1ccc(C(=O)N[C@@H](CCC(=O)O)C(=O)O)c(C)c1`, for which half-maximal inhibition (IC50) was put at 316 nM.
Compound `C#CCN(Cc1ccc2nc(OC)[nH]c(=O)c2c1)c1ccc(C(=O)N[C@@H](CCC(=O)O)C(=O)O)c(F)c1` showed a half-inhibitory concentration (IC50) of 36.3 nM.
The value for `Cc1nc2ccc(CN(CCF)c3ccc(C(=O)N[C@@H](CCC(=O)O)C(=O)O)cc3F)cc2c(=O)[nH]1` was 1740 nM.
The value for `C=CCN(Cc1ccc2nc(C)[nH]c(=O)c2c1)c1ccc(C(=O)N[C@@H](CCC(=O)O)C(=O)O)cc1F` was 5130 nM.
Under `Cc1nc2ccc(CN(CCS)c3ccc(C(=O)N[C@@H](CCC(=O)O)C(=O)O)cc3)cc2c(=O)[nH]1` stands 1780 nM.
With `CCN(Cc1ccc2nc(C)[nH]c(=O)c2c1)c1ccc(C(=O)N[C@@H](CCC(=O)O)C(=O)O)cc1F`, half-maximal inhibition (IC50) required 676 nM.
`Cc1nc2ccc(CN(CCO)c3ccc(C(=O)N[C@@H](CCC(=O)O)C(=O)O)c(F)c3)cc2c(=O)[nH]1` gave an IC50 of 77.6 nM.
The value for `CCc1nc2ccc(CNc3ccc(C(=O)N[C@@H](CCC(=O)O)C(=O)O)cc3)cc2c(=O)[nH]1` was 20000 nM; that for `CCN(Cc1ccc2nc(C)[nH]c(=O)c2c1)c1ccc(C(=O)N[C@@H](CCC(=O)O)C(=O)O)c(OC)c1` was 191 nM.
In the case of `Cc1nc2ccc(CN(C)c3ccc(C(=O)N[C@@H](CCC(=O)O)C(=O)O)c(N)c3)cc2c(=O)[nH]1`, it took 851 nM to reach half-maximal inhibition (IC50). Against the preceding compound, the IC50 is about 4.5-fold higher.
The value for `CCN(Cc1ccc2nc(C)[nH]c(=O)c2c1)c1ccc(C(=O)N[C@@H](CCC(=O)O)C(=O)O)c(Cl)c1` was 120 nM; that for `Cc1nc2ccc(CN(CCF)c3cnc(C(=O)N[C@@H](CCC(=O)O)C(=O)O)s3)cc2c(=O)[nH]1` was 191 nM.
Under `Cc1nc2ccc(CN(CCO)c3cnc(C(=O)N[C@@H](CCC(=O)O)C(=O)O)s3)cc2c(=O)[nH]1` stands 417 nM.
Consider `C#CCN(Cc1ccc2nc(C)[nH]c(=O)c2c1)c1ccc(C(=O)N[C@@H](CCC(=O)O)C(=O)O)s1`, for which it took 437 nM to reach half-maximal inhibition (IC50).
Under `CCN(Cc1ccc2nc(C)[nH]c(=O)c2c1)c1ccc(C(=O)N[C@@H](CCC(=O)O)C(=O)O)s1` stands 575 nM.
Under `Cc1nc2ccc(CN(CCO)c3ccc(C(=O)N[C@@H](CCC(=O)O)C(=O)O)s3)cc2c(=O)[nH]1` stands 1200 nM.
The value for `Cc1nc2ccc(CN(CCCO)c3ccc(C(=O)N[C@@H](CCC(=O)O)C(=O)O)s3)cc2c(=O)[nH]1` was 3390 nM; that for `Cc1nc2ccc(CN(CC#N)c3ccc(C(=O)N[C@@H](CCC(=O)O)C(=O)O)s3)cc2c(=O)[nH]1` was 3090 nM.
Consider `C#CCN(Cc1ccc2nc(C)[nH]c(=O)c2c1)c1cnc(C(=O)N[C@@H](CCC(=O)O)C(=O)O)s1`, for which the half-maximal inhibitory concentration (IC50) is 229 nM. Against the preceding compound, the IC50 is about 13-fold lower.
Under `Cc1nc2ccc(CN(CCF)c3ccc(C(=O)N[C@@H](CCC(=O)O)C(=O)O)s3)cc2c(=O)[nH]1` stands 550 nM; under `Cc1nc2ccc(CN(CCCO)c3cnc(C(=O)N[C@@H](CCC(=O)O)C(=O)O)s3)cc2c(=O)[nH]1`, 1740 nM.
The value for `Cc1nc2ccc(CNc3cnc(C(=O)N[C@@H](CCC(=O)O)C(=O)O)s3)cc2c(=O)[nH]1` was 7080 nM.
The value for `CCN(Cc1ccc2nc(C)[nH]c(=O)c2c1)c1ncc(C(=O)N[C@@H](CCC(=O)O)C(=O)O)s1` was 759 nM; that for `Cc1nc2ccc(CN(C)c3cnc(C(=O)N[C@@H](CCC(=O)O)C(=O)O)s3)cc2c(=O)[nH]1` was 417 nM.
`CCN(Cc1ccc2nc(C)[nH]c(=O)c2c1)c1cnc(C(=O)N[C@@H](CCC(=O)O)C(=O)O)s1`: half-maximal inhibition (IC50) required 229 nM.
Take `CCN(Cc1ccc2nc(C)[nH]c(=O)c2c1)c1nnc(C(=O)N[C@@H](CCC(=O)O)C(=O)O)s1`: the IC50 was 933 nM.
Take `CCCN(Cc1ccc2nc(C)[nH]c(=O)c2c1)c1ccc(C(=O)N[C@@H](CCC(=O)O)C(=O)O)s1`: inhibition was half-maximal at 1860 nM (IC50).
In turn, `C=CCN(Cc1ccc2nc(C)[nH]c(=O)c2c1)c1ccc(C(=O)N[C@@H](CCC(=O)O)C(=O)O)s1` had an IC50 of 1660 nM.
Under `C=CCN(Cc1ccc2nc(C)[nH]c(=O)c2c1)c1cnc(C(=O)N[C@@H](CCC(=O)O)C(=O)O)s1` stands 1070 nM; under `C#CCN(Cc1ccc2nc(C)[nH]c(=O)c2c1)c1ccc(C(=O)N[C@@H](CCC(=O)O)C(=O)O)c(F)c1`, 20 nM; under `COCCN(Cc1ccc2nc(C)[nH]c(=O)c2c1)c1ccc(C(=O)N[C@@H](CCC(=O)O)C(=O)O)cc1`, 16200 nM.
In the case of `C#CCN(Cc1ccc2nc(C)[nH]c(=O)c2c1)c1ccc(C(=O)N[C@@H](CCC(=O)O)C(=O)O)nc1`, the IC50 is 39.8 nM.
The value for `Cc1nc2ccc(CN(C)c3ccc(C(=O)N[C@@H](CCC(=O)O)C(=O)O)nc3)cc2c(=O)[nH]1` was 347 nM.
Consider `C#CCN(Cc1ccc2nc(C)[nH]c(=O)c2c1)c1ccc(C(=O)N[C@@H](CCC(=O)O)C(=O)O)cc1F`, for which 1450 nM corresponded to half-maximal inhibition (IC50).
The value for `Cc1nc2ccc(CN(C)c3ccc(C(=O)N[C@@H](CCC(=O)O)C(=O)O)c(F)c3)cc2c(=O)[nH]1` was 120 nM.
The value for `Cc1nc2ccc(CN(CCBr)c3ccc(C(=O)N[C@@H](CCC(=O)O)C(=O)O)cc3)cc2c(=O)[nH]1` was 1290 nM; that for `Cc1nc2ccc(CN(CC(N)=O)c3ccc(C(=O)N[C@@H](CCC(=O)O)C(=O)O)c(F)c3)cc2c(=O)[nH]1` was 1350 nM.
Under `C=CCN(Cc1ccc2nc(C)[nH]c(=O)c2c1)c1ccc(C(=O)N[C@@H](CCC(=O)O)C(=O)O)c(F)c1` stands 75.9 nM; under `C#CCN(Cc1ccc2nc(C)[nH]c(=O)c2c1)c1ccc(C(=O)N[C@@H](CCC(=O)O)C(=O)O)c([N+](=O)[O-])c1`, 129 nM.
`Cc1nc2ccc(CN(C)c3ccc(C(=O)N[C@@H](CCC(=O)O)C(=O)O)c(C)c3)cc2c(=O)[nH]1` showed a 50% inhibitory concentration (IC50) of 933 nM.
The value for `C#CCN(Cc1ccc2nc(C)[nH]c(=O)c2c1)c1ccc(C(=O)N[C@@H](CCC(=O)O)C(=O)O)c(O)c1` was 89.1 nM; that for `Cc1nc2ccc(CN(CC#N)c3ccc(C(=O)N[C@@H](CCC(=O)O)C(=O)O)c(F)c3)cc2c(=O)[nH]1` was 170 nM; that for `C#CCN(Cc1ccc2nc(C)[nH]c(=O)c2c1)c1ccc(C(=O)N[C@@H](CCC(=O)O)C(=O)O)c(C)c1` was 501 nM.
Under `C#CCN(Cc1ccc2nc(C)[nH]c(=O)c2c1)c1ccc(C(=O)N[C@@H](CCC(=O)O)C(=O)O)c(OC)c1` stands 67.6 nM; under `C#CCN(Cc1ccc2nc(C)[nH]c(=O)c2c1)c1ccc(C(=O)N[C@@H](CCC(=O)O)C(=O)O)c(Cl)c1`, 74.1 nM; under `C=CCN(Cc1ccc2nc(C)[nH]c(=O)c2c1)c1ccc(C(=O)N[C@@H](CCC(=O)O)C(=O)O)cc1`, 479 nM.
The value for `Cc1nc2ccc(CN(C)c3ccc(C(=O)N[C@@H](CCC(=O)O)C(=O)O)cc3)cc2c(=O)[nH]1` was 302 nM.
With `C#CCN(Cc1ccc2nc[nH]c(=O)c2c1)c1ccc(C(=O)N[C@@H](CCC(=O)O)C(=O)O)c(F)c1`, 57.5 nM corresponded to half-maximal inhibition (IC50). Compared with the last compound, the IC50 is about 5.3-fold lower.
`CCN(Cc1ccc2nc(C)[nH]c(=O)c2c1)c1ccc(C(=O)N[C@@H](CCC(=O)O)C(=O)O)nc1` gave an IC50 of 151 nM. This IC50 is about 2.6-fold higher than that of the compound before.
The value for `CCN(Cc1ccc2nc(C)[nH]c(=O)c2c1)c1ccc(C(=O)N[C@@H](CCC(=O)O)C(=O)O)cc1` was 170 nM; that for `Cc1nc2ccc(CNc3ccc(C(=O)N[C@@H](CCC(=O)O)C(=O)O)s3)cc2c(=O)[nH]1` was 24500 nM; that for `Cc1nc2ccc(CNc3ccc(C(=O)N[C@@H](CCC(=O)O)C(=O)O)cc3)cc2c(=O)[nH]1` was 4470 nM.
Under `Cc1nc2ccc(CN(C)c3ccc(C(=O)N[C@@H](CCC(=O)O)C(=O)O)cc3F)cc2c(=O)[nH]1` stands 1150 nM.

The record behind these values is ChEMBL document CHEMBL1157058, “3D-QSAR studies on quinazoline antifolate thymidylate synthase inhibitors by CoMFA and CoMSIA models” (Eur J Med Chem, 2010).
